Earlier results in patent publication US20240009304A1, “USE OF NGF ANTIBODY IN CIPN PAIN” (Dartsbio Pharmaceuticals Ltd., priority 2020, published 2024).

Key:
dopamine reuptake = conditions: preclinical studies, background; cited from earlier work
[1] = test system: dopaminergic receptor, adrenergic receptor, cholinergic receptor, histaminergic receptor, opioid receptor, glutamate receptor and GABA receptor; conditions: in vitro study, background; cited from earlier work
neuronal 5-HT reuptake = conditions: preclinical studies, background; cited from earlier work
monoamine oxidase = conditions: background; cited from earlier work
neuronal NE reuptake = conditions: preclinical studies, background; cited from earlier work
CIPN pain = conditions: background statement; cited from earlier work

Row | Structure (SMILES) | inhibitory effect on dopamine reuptake (dopamine reuptake) | affinity with receptors [1] | neuronal 5-HT reuptake inhibition (neuronal 5-HT reuptake) | inhibition of monoamine oxidase (monoamine oxidase) | neuronal NE reuptake inhibition (neuronal NE reuptake) | effect in the treatment of CIPN pain (CIPN pain)
1 | CNCC[C@H](Oc1cccc2ccccc12)c1cccs1 [Duloxetine] | relatively weak | no obvious affinity | strong inhibitor | does not inhibit | strong inhibitor | proven to be effective
2 | CN(C)CCC=C1c2ccccc2CCc2ccccc21 [amitriptyline] |  |  |  |  |  | do not seem to be more effective than placebo
3 | NCC1(CC(=O)O)CCCCC1 [gabapentin] |  |  |  |  |  | do not seem to be more effective than placebo
4 | CC(C)C[C@H](CN)CC(=O)O [pregabalin] |  |  |  |  |  | do not seem to be more effective than placebo
